Test results from PMC5114585, “Tomato FK506 Binding Protein 12KD (FKBP12) Mediates the Interaction between Rapamycin and Target of Rapamycin (TOR)” (Frontiers in Plant Science, 2016).

Target: T1, SlFKBP12 (Solanum lycopersicum, UniProt A0A3Q7ERC2)
T1 construct: gene FKBP12
T1 sequence (A0A3Q7ERC2 1-112): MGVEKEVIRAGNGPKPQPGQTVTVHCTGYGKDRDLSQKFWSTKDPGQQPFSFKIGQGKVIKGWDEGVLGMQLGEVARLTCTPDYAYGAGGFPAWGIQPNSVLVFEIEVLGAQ
Assay: protein gel shifting assay: native vs denatured extracts of treated seedlings, anti-HA immunoblot
Conditions: 0, 1, 5, 10 uM rapamycin for 24 h on seedlings; indirect read-out of ternary FKBP12-rapamycin-TOR complex (host Arabidopsis TOR)

In the case of `CO[C@H]1C[C@@H]2CC[C@@H](C)[C@@](O)(O2)C(=O)C(=O)N2CCCC[C@H]2C(=O)O[C@H]([C@H](C)C[C@@H]2CC[C@@H](O)[C@H](OC)C2)CC(=O)[C@H](C)/C=C(\C)[C@@H](O)[C@@H](OC)C(=O)[C@H](C)C[C@H](C)/C=C/C=C/C=C/1C` [rapamycin], the “protein gel shifting assay: native vs denatured extracts of treated seedlings, a” value is reported as “with increasing of rapamycin, SlFKBP12 protein level displayed a decline trend in native stage”.
